# Experimental data published in patent US10259809B2, “Fluorinated imidazo[4,5-C]quinoline derivatives as inhibitors of bromodomain containing proteins” (Trillium Therapeutics Inc., priority 2015, dated 2019).
# Tests used:
# [1] = tested on: HL60; assay: Oncology cell growth assay, HL60; type: cell-based, human; conditions: HL60, Promyelocytic leukemia; gIC50, 72 hours
# Experimental: (§1) Human cell lines were cultured in RPMI-1640 containing 10% fetal bovine serum, 1000 viable cells per well were plated in 384-well black flat bottom polystyrene plates (Greiner #781086) in 48 ˜I of culture media. All plates were placed at 5% CO2, 37° C. overnight. The following day one plate was harvested with CeliTiter-Glo (CTG, Promega #G7573) for a time equal to 0 (TO) measurement and compound (20 point titration from 14.7 uM to 7 pM) was added to the remaining plates. The final concentration of DMSO in all wells was 0.15%. Cells were incubated for 72 hours or the indicated time and each plate was developed with CeliTiterGlo reagent using a volume equivalent to the cell culture volume in the wells. Plates were shaken for approximately 2 minutes and chemiluminescent signal was read on the Analyst GT (Molecular Devices) or EnVision Plate Reader (Perkin Elmer).
# (§2) Results are expressed as a percent of the TO and plotted against the compound concentration. The TO value was normalized to 100% and represents the number of cells at time of compound addition and the concentration response data were fit with a 4 parameter curve fit using XLfit software (model 205). […] The Ymin-TO value was determined by subtracting the TO value (100%) from the Ymin value (%) determined from the fit of the concentration response curve. […]
# [2] = tested on: MOLT4; assay: Oncology cell growth assay, MOLT4; type: cell-based, human; conditions: MOLT4, acute lymphoid leukemia; gIC50, 72 hours
# Experimental: as §1, §2
# [3] = tested on: MV4-11 human AML xenograft; assay: MV4-11 subcutaneous human AML xenograft model, efficacy; type: in vivo, NOD SCID mice; conditions: PO
# Experimental: • Species & Strain: NOD SCID mice • Age: 7-8 week • Total Number: 60 mice plus 40% spare • Sex: Female • Body Weight: 18 to 22 g Animal Maintenance
# Groups and treatments started when the mean tumor volume reached 138 mm^3. Based on the tumor volume, mice were randomly assigned to respective groups using a computer-generated randomization procedure.
# Each mouse was inoculated subcutaneously on the right flank with MV4-11 tumor cells ([…]) in 0.1 ml of IMDM without serum for tumor development. The treatment started when the mean tumor size reached approximately 138 mm^3. Mice were randomized into groups.
# During the course of study, the tumor size was measured twice a week in two dimensions using a caliper, and the volume was expressed in mm^3 using the formula: TV=a×b2/2 where a and b were the long and short diameters of the tumor, respectively. The tumor size was then used for T/C and TGI (tumor growth inhibition) values, which were indicators of anti-tumor effectiveness. T/C was calculated with the formula [(Td−T0)/(Cd−C0)]×100%, TGI is calculated with the formula [1−(Td−T0)/(Cd−C0)]×100%. Td and Cd were the mean tumor volumes (or median tumor volumes) of the treated and control animals, and T0 and C0 were the mean tumor volumes of the treated and control animals at the start of the experiment.
# [4] = tested on: SK-OV-3; assay: Oncology cell growth assay, SK-OV-3; type: cell-based, human; conditions: SK-OV-3, Ovarian cancer; gIC50, 72 hours
# Experimental: as §1, §2
# [5] = tested on: MV4-11; assay: Oncology cell growth assay, MV4-11; type: cell-based, human; conditions: MV4-11, AML (acute myeloid) leukemia; gIC50, 72 hours
# Experimental: as §1, §2
# [6] = tested on: AML2; assay: Oncology cell growth assay, AML2; type: cell-based, human; conditions: AML2, AML (acute myeloid leukemia); gIC50, 72 hours
# Experimental: as §1, §2
# [7] = MV4-11 xenograft model, tolerance (body weight, clinical signs); type: in vivo
# Experimental: For routine monitoring, all study animals were monitored not only tumor growth but also behavior such as mobility, food and water consumption (by cage side checking only), body weight (BW), eye/hair matting and any other abnormal effect. Any mortality and/or abnormal clinical signs would be recorded.
# Body weights of all animals were measured twice weekly throughout the study.
# [8] = tested on: MM.1S; assay: Oncology cell growth assay, MM.1S; type: cell-based, human; conditions: Multiple myeloma, gIC50, 72 hours
# Experimental: as §1, §2
# [9] = tested on: RPMI-8226; assay: Oncology cell growth assay, RPMI-8226; type: cell-based, human; conditions: RPMI-8226, Multiple myeloma; gIC50, 72 hours
# Experimental: as §1, §2
# [10] = tested on: TEX; assay: Oncology cell growth assay, TEX; type: cell-based, human; conditions: AML (acute myeloid leukemia), gIC50, 72 hours
# Experimental: as §1, §2
smiles,measurement,setting,value
COc1cc2c(cc1-c1c(C)noc1C)ncc1nc(C3CCOCC3)n([C@H](C)COC(F)F)c12.Cl [2(g)·HCl],IC50,[1],51 ± 3 nM
same,IC50,[2],1140 nM
same,antitumor activity,[3]; 30 mg/kg and 50 mg/kg,significant antitumor activity
same,antitumor activity,"[3]; low-dose 10 mg/kg, QD × 14",moderate antitumor activity
same,IC50,[4],2180 ± 1440 nM
same,IC50,[5],14 ± 7 nM
same,IC50,[6],18 ± 2 nM
same,body weight loss,"[7]; 50 mg/kg PO, during the dosing period",9.1%
same,body weight after dose suspension,"[7]; 50 mg/kg, after a two days dose suspension on Day 8 and 9",maintained or recovered
same,IC50,[8],17 ± 4 nM
same,IC50,[9],303 ± 6 nM
same,IC50,[10],23 ± 2 nM
